Laboratory results: patent US20210261971A1, “COMPOSITIONS AND METHODS FOR AMELIORATING TISSUE INJURY, ENHANCING LIVER REGENERATION AND STEM CELL THERAPIES” (UNIVERSITY OF SOUTHERN CALIFORNIA, priority 2018, published 2021)
Entries after “also recorded” stand apart in the source; their conditions may differ. Read-outs that look alike come from different tables or passages of the source.

What was measured:
Assay type in all cases: in vivo, rat
Lewis rats [1] = experiment: Liver histology for toxicity of MMP inhibitors given to controls
BM sprocs = experiment: Hepatic engraftment of GFP+ BM sprocs after PH (% GFP+ LSECs, EGFP bone marrow transplant)
Excerpt: FIG. 7D illustrates the percentage of liver sinusoidal endothelial cells (LSECs) that are bone marrow-derived, i.e. derived from BM sprocs (y-axis labeled % GFP+ LSECs). Hepatic engraftment determined as the percentage of bone marrow-derived LSECs after PH is enhanced by MMP-9 ASO or intraportal MMP inhibitor, whereas systemic inhibition of MMP by doxycycline or intraperitoneal MMP inhibitor reduces hepatic engraftment of BM sprocs. Rats were transplanted with bone marrow from a transgenic EGFP rat to allow tracking of bone marrow cells. Rats were treated with one month of ASO, 2 days of doxycycline, or infusion with the MMP inhibitor followed by partial hepatectomy. On day 2 LSECs were isolated and the percentage of GFP+ LSECs was determined by flow cytometry.
Bone marrow transplantation. BM cells were obtained from one tibia and femur from the donor. Recipients underwent 1,000 cGy total body irradiation and were injected via tail vein with 50 million BM cells. Rats received oxytetracycline (200 mg/ml) diluted 1:1,000 in the drinking water starting two days before irradiation and continuing until one week after irradiation. BM was allowed to engraft for 2 months before use. BM from Lew-Tg(CAG-EGFP)ys Lewis rats was transplanted into wild-type Lewis rats and cells were tracked by GFP expression.
LSEC isolation. LSECs were isolated by collagenase perfusion, iodixanol density gradient centrifugation, and centrifugal elutriation, as previously described (22, 23). Yields averaged 86×10^6 cells per normal rat liver (range 69-95×10^6) with average viability of 94% (range 91-96%). Purity of the cells was 99%, as determined by uptake of formaldehyde-treated serum albumin (kind gift from Bard Smedsrod, University of Tromso, Tromso, Norway), a function specific to LSECs. Cells isolated by this protocol have an appropriate range of fenestrae organized in sieve plates.
(§1) Flow cytometry. Flow cytometry was performed using a FACSCalibur (BD Biosciences). Isotype control antibodies were used to determine appropriate gates, voltages, and compensation required for multivariate flow cytometry. Cell Quest Pro software was used for analysis

MMP-9 = experiment: Immunoblot of hepatic pro-MMP-9 and bone marrow extracellular fluid MMP-9/pro-MMP-9 after PH; settings: 6 hours after PH
Description: Immunoblotting. Samples from freshly isolated liver were harvested using triple lysis buffer (TLB: 50 mM Tris base, 150 mM NaCl, 3 mM sodium azide, 12 mM sodium deoxycholate, 0.1% SDS, 1% Nonidet-P40) supplemented with 2 mM phenylmethylsulphonyl fluoride (PMSF), 1 mM sodium orthovanadate and 1% protease inhibitors cocktail (Santa Cruz sc-24948). Proteins were purified by centrifugation at 15,000 g at 4° C. for 10 min and quantified using DC™ Protein Assay Kit (BioRad). The samples obtained from bone marrow extracellular fluid were preserved in PBS. For MMP-9 analysis, 100 μg of total protein was used from each sample per lane and resolved on NUPAGE™ NOVEX™ 10% Bis-Tris Protein Gels using MOPS running buffer. Proteins were transferred onto 0.45 μm nitrocellulose membranes via electroblotting using XCell II™ Blot Module (Invitrogen), for 1 h, 30V. For SDF-1 and VEGF analysis, 75 μg of total protein was used from each sample per lane and resolved on NUPAGE™ NOVEX™ 4-12% Bis-Tris Protein Gels using MES running buffer. Proteins were transferred onto 0.2 μm nitrocellulose membranes via electroblotting using Trans-blot SD Semi-Dry Transfer Cell™ (Bio-rad), for 20 min, 25V. Membranes were blocked using NAP-BLOCKER™. […] Membrane digital images were acquired with the Odyssey Infrared Imaging System (LI-COR) and analyzed using the LI-COR IMAGE STUDIO™. […]

[2] = system: BM sprocs (CD133+45+31+ cells); experiment: Recruitment of BM sprocs after PH: number in bone marrow and circulation by immunomagnetic selection and flow cytometry; settings: for number of circulating CXCR7+ sprocs: 6 hours after PH
Description: Sproc isolation. BM and circulating sprocs were isolated by immunomagnetic selection for CD133 using a CD133 Cell Isolation Kit (Miltenyi Biotec, Auburn, Calif.) and separation with an autoMACS Pro (Miltenyi Biotec, Auburn, Calif.), followed by FACS sorting for CD45 and CD31 (FIG. 26, or Supporting Fig S1).
To determine the number of sprocs in the circulation and BM from Lewis rats 6 hours after partial hepatectomy, CD133+ cells were isolated by immunomagnetic selection for CD133 from peripheral blood or BM. Cell suspensions were preblocked with FcR blocking reagent and incubated for 60 minutes with antibodies to rat CD45 and CD31. CD133+45+31+ cells were quantified by flow cytometry. In some experiments cells were also stained with antibody to rat CXCR7, to identify CD133+45+31+CXCR7+ cells in the circulation.
as §1

Lewis rats [3] = experiment: Liver regeneration after two-thirds partial hepatectomy (PH): liver-to-body weight ratio, Ki-67 proliferation; settings: for hepatocyte proliferation (ki-67) compared to respective control: day 2 after PH, intraportal infusion
Description: Partial (70%) hepatectomy was performed under general anesthesia with ketamine-xylazine (80-90 mg/kg ip). For 70% partial hepatectomy, the median and left lateral lobes were removed. Buprenorphine SR (1 mg/kg) was used postoperatively for analgesia.
Liver-selective MMP-9 inhibition: Knockdown of MMP-9 was achieved by injection of one of two MMP-9 antisense oligonucleotides that were a kind gift from Ionis Pharmaceuticals (Ions No 283953 and 283973, Carlsbad, Calif.; 20 mg/kg intraperitoneally twice weekly for 4 weeks.
Systemic MMP inhibition: Doxycycline (Sigma, St. Louis), 15 mg/kg i.g., was given twice daily starting 2 days before the relevant study. Control studies were performed with the same dose of a chemically modified tetracycline, isochlorotetracycline, which is only a weak MMP inhibitor. In other experiments, MMP-2/9 was inhibited by infusing 2-[(4-biphenylsulfonyl)amino]-3-phenyl-propionic acid, 100 μg/kg/h, intraperitoneally with an Alzet mini-osmotic pump (model 2001, Durect Corporation, Cupertino Calif.).
Deparaffinized 5 μm sections of liver were treated with Bond ER-2 antigen retrieval (Leica Biosystems, Buffalo Grove, Ill.) for 20 min. After preblocking for 10 min with Rodent Block R (Cat #RBR962G, Biocare, Pacheco, Calif.), sections were incubated with antibody against Ki-67 for 60 min. Immunohistochemistry was performed by incubating sections with rabbit-on-rodent HRP-Polymer (cat #RMR622G, Biocare) for 30 min. Slides were rinsed in Bond diaminobenzidine (Leica Biosystems) for 10 min. After counterstaining with Bond hematoxylin, slides were dehydrated and covered using a coverslip with resinous mounting medium (Leica Biosystems).
Ki-67 positive cells were determined using photographs taken with a 20×-objective in 15 lobules per rat, n=3. To assess the percentage of proliferating hepatocytes and non-parenchymal cells, slides were coded and the percentage Ki-67 positive cells was determined blindly by X.W. To determine zonation of proliferating cells, each lobule was divided into three even fields and the total number of ki-67 positive cells/field was counted.

[4] = system: infused allogeneic sprocs; experiment: Model of stem cell therapy: engraftment of infused GFP+ allogeneic sprocs after PH; settings: 3 months; control group 1.5%
Description: FIG. 8 graphically illustrates the percent LSECs as a function of engraftments of infused allogenic sprocs, and examines the concept that impairment of BM release of sprocs will favor engraftment of exogenously infused progenitor cells. […] When the percentage of cells derived from the GFP+ allogeneic progenitors was examined at 3 months, 1.5% were GFP+ in the control group versus 14% in the doxycycline group (data not shown). Method: rats were pre-treated with 2 days of doxycycline, 15 mg/kg intra-gastrically twice daily, followed by partial hepatectomy. 1 million sprocs were isolated from the livers of GFP+ rats and infused by tail vein injection. On day 2 and after 3 months LSECs were isolated and the number of GFP+ cells was determined by flow cytometry. Increased ischemia-reperfusion injury in Non-Alcoholic Fatty Liver Disease (NAFLD) due to impaired sdf-1 signaling to bone marrow sprocs can be attenuated by liver-selective MMP inhibition: Systemic MMP inhibition: Doxycycline (Sigma, St. Louis), 15 mg/kg i.g., was given twice daily starting 2 days before the relevant study. […] Purity of the cells was 99%, as determined by uptake of formaldehyde-treated serum albumin (kind gift from Bard Smedsrod, University of Tromso, Tromso, Norway), a function specific to LSECs. […]

Q: Which results are given for `O=C(O)[C@@H](Cc1ccccc1)NS(=O)(=O)c1ccc(-c2ccccc2)cc1` [MMP-2/9 inhibitor, (2R)-2-[(4-Biphenylylsulfonyl)amino]-3-phenylpropionic acid]?
A: hepatotoxicity (histology) (Lewis rats [1]; intraportal): no evidence of toxicity; also recorded: neither doxycycline nor intraportal MMP-2/9 inhibitor given to controls was hepatotoxic; hepatic engraftment of BM sprocs (% GFP+ LSECs) (BM sprocs; intraperitoneal): reduced; reduction of hepatic engraftment of BM sprocs compared to control/PH (BM sprocs; intraperitoneal): 36%; hepatic engraftment of BM sprocs (% GFP+ LSECs) (BM sprocs; intraperitoneal, listed as MMP inhibitor): reduces; hepatic engraftment of BM sprocs (% GFP+ LSECs) (BM sprocs; intraportal): enhanced; increase of hepatic engraftment of GFP+ BM sprocs compared to control/PH (BM sprocs; intraportal): 45%; increase of hepatic MMP-9 protein expression after PH (MMP-9; intraperitoneal): abrogated the increase in hepatic MMP-9 expression; increase of hepatic MMP-9 protein expression after PH (MMP-9; intraportal): abrogated the increase in hepatic MMP-9 expression; number of circulating CXCR7+ sprocs ([2]; intraperitoneal): reduced; number of circulating CXCR7+ sprocs ([2]; intraportal infusion): increased; reduction of CXCR7+ sprocs mobilized to the circulation ([2]; after PH, intraperitoneal): 86%; increase of CXCR7+ sprocs in the circulation ([2]; after PH, intraportal infusion): 110%; hepatocyte proliferation (ki-67) compared to respective control (Lewis rats [3]): enhances; hepatocyte proliferation (ki-67) compared to respective control (Lewis rats [3]; listed as MMPi): enhanced

Q: How did the “percentage of GFP+ LSECs derived from infused allogeneic progenitors” value [4] turn out when `C[C@H]1c2cccc(O)c2C(=O)C2=C(O)[C@]3(O)C(=O)C(C(N)=O)=C(O)[C@@H](N(C)C)[C@@H]3[C@@H](O)[C@@H]21` [doxycycline, Doxycycline] was run?
A: Its value is 14%.

Q: And the “hepatotoxicity (histology)” value (Lewis rats [1])?
A: Its value is “neither doxycycline nor intraportal MMP-2/9 inhibitor given to controls was hepatotoxic”.

Q: And the “hepatotoxicity (histology)” value (Lewis rats [1]; listed as coxycycline)?
A: The value was “no evidence of toxicity”.

Q: And the “reduction of hepatic engraftment of BM sprocs compared to control/PH” value (BM sprocs; systemic)?
A: The value was 58%.

Q: What about the “reduction of CXCR7+ sprocs mobilized to the circulation” value ([2]; after PH, systemic) of the same compound?
A: Its value is 90%.

Q: And the “reduction of mobilization of BM sprocs to the circulation” value ([2]; after PH, systemic)?
A: Its value is 72%.

Q: What about the “reduction of liver-to-body weight ratio compared to its solvent control” value (Lewis rats [3]; day 5 after two-thirds PH, doxycycline for 2 days before PH (systemic)) of the same compound?
A: The value was 29%.

Q: With isochlorotetracycline as the compound, how does the “hepatic engraftment of BM sprocs (% GFP+ LSECs)” value (BM sprocs) read?
A: Its value is “no effect”.
